Positions of bridges follow the written chain, without caps; N, C: chain ends. Non-standard residues stand in square brackets, D forms with d. Residues, ends and D or L forms follow the SMILES beside them. *: point of attachment. Bip = N[C@@H](Cc1ccc(-c2ccccc2)cc1)C(=O)O; Phe(3-Me) = Cc1cccc(C[C@H](N)C(=O)O)c1; Val(3-OH) = CC(C)(O)[C@H](N)C(=O)O; NMeF = CN[C@@H](Cc1ccccc1)C(=O)O; Cha = N[C@@H](CC1CCCCC1)C(=O)O; dOrn = NCCC[C@@H](N)C(=O)O; dDab = NCC[C@@H](N)C(=O)O; dPip = O=C(O)[C@H]1CCCCN1; Carboxymethyl = O=C(O)C*; NMeA = CN[C@@H](C)C(=O)O; Nle = CCCC[C@H](N)C(=O)O; Orn = NCCC[C@H](N)C(=O)O; Dab = NCC[C@H](N)C(=O)O; Sar = CNCC(=O)O
Target: T1, human PD-1 (Jurkat-PD-1 cells) / PE-labeled human PD-L1-Ig (Homo sapiens, UniProt Q15116)
T1 construct: expressed in transfected cells; host or cells: Jurkat cell line over-expressing human PD-1
T1 sequence (Q15116 25-288): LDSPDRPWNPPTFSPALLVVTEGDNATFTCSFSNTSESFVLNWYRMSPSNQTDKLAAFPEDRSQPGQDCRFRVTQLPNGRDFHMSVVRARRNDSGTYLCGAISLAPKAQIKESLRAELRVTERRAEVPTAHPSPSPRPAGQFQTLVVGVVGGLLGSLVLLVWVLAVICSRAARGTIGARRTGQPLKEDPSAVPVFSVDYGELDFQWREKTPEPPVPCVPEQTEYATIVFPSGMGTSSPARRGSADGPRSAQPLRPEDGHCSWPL
Assay: Jurkat-PD-1 Cell Binding High-Content Screening Assay (CBA); Jurkat hPD1-PDL1 assay
Details: Jurkat cell line over-expressing human PD-1; PE-labeled PD-L1-Ig 20 nM final; compound incubated 2 hours at 37° C.; read-out: Jurkat HPD1-PDL1 IC50
Procedure, shortened: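 Jurkat-hPD-1 cells; cpd 2 h, 37° C; then PE-PD-L1-Ig 20 nM final in DMEM/10% FCS; high-content imaging read-out.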

| IC50 [nM] | SMILES |
| --- | --- |
| 550 | Cc1cccc(C[C@@H]2NC(=O)[C@H](CC(=O)O)NC(=O)[C@H](Cc3ccc(OCC(=O)O)cc3)NC(=O)[C@H](CCCNC(=N)N)NC(=O)CSC[C@@H](C(=O)N[C@@H](CCN)C(N)=O)NC(=O)[C@H](CO)NC(=O)[C@H](C(C)(C)O)NC(=O)[C@H](CC3CCCCC3)NC(=O)[C@H](CCN)NC(=O)[C@H]3CCCCN3C(=O)[C@H]3CCCN3C(=O)[C@H](Cc3ccc(OCC(=O)O)cc3)NC(=O)[C@H](Cc3ccc(-c4ccccc4)cc3)NC(=O)[C@H](Cc3ccc(OCC(=O)O)cc3)NC2=O)c1 [Example 1190] ({CH2CO}-RY(Carboxymethyl)D[Phe(3-Me)]Y(Carboxymethyl)[Bip]Y(Carboxymethyl)[dP][dPip][Dab][Cha][Val(3-OH)]SC[Dab]-NH2; thioether N-14) |
| 690 | CCCC[C@@H]1NC(=O)[C@H](C(C)C)NC(=O)[C@H](Cc2ccccc2)N(C)C(=O)[C@H](CC(=O)O)NC(=O)[C@H](CCC(=O)O)NC(=O)[C@H](Cc2ccc(-c3ccccc3)cc2)NC(=O)[C@H](C(C)C)NC(=O)[C@H](Cc2c[nH]c3ccccc23)NC(=O)[C@H](CC(=O)O)NC(=O)[C@H](Cc2ccc(O)cc2)NC(=O)[C@H](Cc2ccccc2)NC(=O)CSC[C@@H](C(=O)NCC(N)=O)NC(=O)[C@H](CCCNC(=N)N)NC(=O)[C@H](C(C)C)NC1=O [Example 1191] ({CH2CO}-FYDWV[Bip]ED[NMeF]V[Nle]VRCG-NH2; thioether N-14) |
| 920 | CCCC[C@@H]1NC(=O)[C@H](CCCCN)NC(=O)[C@H](Cc2ccccc2)N(C)C(=O)[C@H](CC(=O)O)NC(=O)[C@H](CCCNC(=N)N)NC(=O)[C@H](Cc2ccc(-c3ccccc3)cc2)NC(=O)[C@H](C(C)C)NC(=O)[C@H](Cc2c[nH]c3ccccc23)NC(=O)[C@H](CC(=O)O)NC(=O)[C@H](Cc2ccc(O)cc2)NC(=O)[C@H](Cc2ccccc2)NC(=O)CSC[C@@H](C(=O)NCC(N)=O)NC(=O)[C@H](CCCNC(=N)N)NC(=O)[C@H](C(C)C)NC1=O [Example 1192] ({CH2CO}-FYDWV[Bip]RD[NMeF]K[Nle]VRCG-NH2; thioether N-14) |
| 370 | CC(C)C[C@@H]1NC(=O)[C@H](Cc2c[nH]c3ccccc23)NC(=O)[C@H](CC(=O)O)NC(=O)[C@H](Cc2ccc(O)cc2)NC(=O)[C@H](Cc2ccccc2)NC(=O)CSC[C@@H](C(=O)N[C@@H](C)C(N)=O)NC(=O)[C@H](CO)NC(=O)[C@H](C(C)C)NC(=O)[C@H](CC(C)C)NC(=O)[C@H](CC(N)=O)NC(=O)[C@H]2CCCN2C(=O)[C@@H](CCN)NC(=O)[C@H](C(C)C)NC(=O)[C@H](Cc2ccc(-c3ccccc3)cc2)NC1=O [Example 1195] ({CH2CO}-FYDWL[Bip]V[dDab][dP]NLVSCA-NH2; thioether N-14) |
| 950 | CC(C)C[C@@H]1NC(=O)[C@H](Cc2c[nH]c3ccccc23)NC(=O)[C@H](CC(=O)O)NC(=O)[C@H](Cc2ccc(O)cc2)NC(=O)[C@H](Cc2ccccc2)NC(=O)CSC[C@@H](C(=O)N[C@@H](C)C(N)=O)NC(=O)[C@H](CO)NC(=O)[C@H](C(C)C)NC(=O)[C@H](CC(C)C)NC(=O)[C@H](CC(N)=O)NC(=O)CN(C)C(=O)[C@@H](CCN)NC(=O)[C@H](C(C)C)NC(=O)[C@H](Cc2ccc(-c3ccccc3)cc2)NC1=O [Example 1196] ({CH2CO}-FYDWL[Bip]V[dDab][Sar]NLVSCA-NH2; thioether N-14) |
| 420 | CC(C)C[C@@H]1NC(=O)[C@H](Cc2c[nH]c3ccccc23)NC(=O)[C@H](CC(=O)O)NC(=O)[C@H](Cc2ccc(O)cc2)NC(=O)[C@H](Cc2ccccc2)NC(=O)CSC[C@@H](C(=O)N[C@@H](C)C(N)=O)NC(=O)[C@H](CO)NC(=O)[C@H](C(C)C)NC(=O)[C@H](CC(C)C)NC(=O)[C@H](CC(N)=O)NC(=O)[C@H]2CCCN2C(=O)[C@@H](CCCCN)NC(=O)[C@H](C(C)C)NC(=O)[C@H](Cc2ccc(-c3ccccc3)cc2)NC1=O [Example 1197] ({CH2CO}-FYDWL[Bip]V[dK][dP]NLVSCA-NH2; thioether N-14) |
| 760 | CC(C)C[C@@H]1NC(=O)[C@H](Cc2c[nH]c3ccccc23)NC(=O)[C@H](CC(=O)O)NC(=O)[C@H](Cc2ccc(O)cc2)NC(=O)[C@H](Cc2ccccc2)NC(=O)CSC[C@@H](C(=O)N[C@@H](C)C(N)=O)NC(=O)[C@H](CO)NC(=O)[C@H](C(C)C)NC(=O)[C@H](CC(C)C)NC(=O)[C@H](CC(N)=O)NC(=O)CN(C)C(=O)[C@@H](CCCN)NC(=O)[C@H](C(C)C)NC(=O)[C@H](Cc2ccc(-c3ccccc3)cc2)NC1=O [Example 1198] ({CH2CO}-FYDWL[Bip]V[dOrn][Sar]NLVSCA-NH2; thioether N-14) |
| 30 | CC(C)C[C@@H]1NC(=O)[C@H](Cc2c[nH]c3ccccc23)NC(=O)[C@H](CC(=O)O)NC(=O)[C@H](Cc2ccc(O)cc2)NC(=O)[C@H](Cc2ccccc2)NC(=O)CSC[C@@H](C(=O)N[C@@H](C)C(N)=O)NC(=O)[C@H](CO)NC(=O)[C@H](C(C)C)NC(=O)[C@H](CC(C)C)NC(=O)[C@H](CC(N)=O)NC(=O)[C@H]2CCCN2C(=O)[C@H](CCCN)NC(=O)[C@H](C(C)C)NC(=O)[C@H](Cc2ccc(-c3ccccc3)cc2)NC1=O [Example 1200] ({CH2CO}-FYDWL[Bip]V[Orn][dP]NLVSCA-NH2; thioether N-14) |
| 80 | CC(C)C[C@@H]1NC(=O)[C@H](CC(N)=O)NC(=O)CN(C)C(=O)[C@H](C)N(C)C(=O)[C@H](C(C)C)NC(=O)[C@H](Cc2ccc(-c3ccccc3)cc2)NC(=O)[C@H](C(C)C)NC(=O)[C@H](Cc2c[nH]c3ccccc23)NC(=O)[C@H](CC(=O)O)NC(=O)[C@H](Cc2ccc(O)cc2)NC(=O)[C@H](Cc2ccccc2)NC(=O)CSC[C@@H](C(=O)NCC(N)=O)NC(=O)[C@H](CO)NC(=O)[C@H](C(C)C)NC1=O [Example 1202] ({CH2CO}-FYDWV[Bip]V[NMeA][Sar]NLVSCG-NH2; thioether N-14) |
| 850 | CC(C)C[C@@H]1NC(=O)[C@H](CCCNC(=N)N)NC(=O)[C@H](Cc2ccccc2)N(C)C(=O)[C@H](C)N(C)C(=O)[C@H](CCCNC(=N)N)NC(=O)[C@H](Cc2ccc(-c3ccccc3)cc2)NC(=O)[C@H](C(C)C)NC(=O)[C@H](Cc2c[nH]c3ccccc23)NC(=O)[C@H](CC(=O)O)NC(=O)[C@H](Cc2ccc(O)cc2)NC(=O)[C@H](C)NC(=O)CSC[C@@H](C(=O)NCC(N)=O)NC(=O)[C@H](CO)NC(=O)[C@H](C(C)C)NC1=O [Example 1203] ({CH2CO}-AYDWV[Bip]R[NMeA][NMeF]RLVSCG-NH2; thioether N-14) |
| 400 | CC(C)C[C@@H]1NC(=O)[C@H](Cc2c[nH]c3ccccc23)NC(=O)[C@H](CC(=O)O)NC(=O)[C@H](Cc2ccc(O)cc2)NC(=O)[C@H](Cc2ccccc2)NC(=O)CSC[C@@H](C(=O)NCC(N)=O)NC(=O)[C@H](CO)NC(=O)[C@H](C(C)C)NC(=O)[C@H](CC(C)C)NC(=O)[C@H](CCCNC(=N)N)NC(=O)CN(C)C(=O)[C@H](C)N(C)C(=O)[C@H](C(C)C)NC(=O)[C@H](Cc2ccc(-c3ccccc3)cc2)NC1=O [Example 1204] ({CH2CO}-FYDWL[Bip]V[NMeA][Sar]RLVSCG-NH2; thioether N-14) |
| 440 | CC(C)C[C@@H]1NC(=O)[C@H](Cc2c[nH]c3ccccc23)NC(=O)[C@H](CC(=O)O)NC(=O)[C@H](Cc2ccc(O)cc2)NC(=O)[C@H](Cc2ccccc2)NC(=O)CSC[C@@H](C(=O)NCC(N)=O)NC(=O)[C@H](CO)NC(=O)[C@H](C(C)C)NC(=O)[C@H](CC(C)C)NC(=O)[C@H](CC(N)=O)NC(=O)[C@H](Cc2ccccc2)N(C)C(=O)[C@H](C)N(C)C(=O)[C@H](C(C)C)NC(=O)[C@H](Cc2ccc(-c3ccccc3)cc2)NC1=O [Example 1205] ({CH2CO}-FYDWL[Bip]V[NMeA][NMeF]NLVSCG-NH2; thioether N-14) |

Reference: US20240360178A1, “MACROCYCLIC IMMUNOMODULATORS” (Bristol-Myers Squibb Company, priority 2021, published 2024)
